The Ki is the dissociation constant of the complex between target and ligand, obtained from inhibition or displacement.

The results in this text go back to patent US12365687B2 (Hoffmann-La Roche Inc., priority 2021, dated 2025).

SMILES strings stand for the structures. Some results are limits rather than exact numbers.

The target in assay [1] is human GABAA α5β2γ1 receptor (Homo sapiens (Human), UniProt P31644+Q8N1C3). Briefly: Radioligand binding assay for γ1-containing GABAA subtypes, [3H]RO7239181 competition (α5β2γ1).
In assay [2] the target is human GABAA α2β2γ1 receptor (Homo sapiens (Human), UniProt P47869+Q8N1C3). Briefly: Radioligand binding assay for γ1-containing GABAA subtypes, [3H]RO7239181 competition (α2β2γ1).
In assay [3] the target is human GABAA α1β2γ1 receptor (Homo sapiens (Human), UniProt P14867+Q8N1C3). The experiment in a line: Radioligand binding assay for γ1-containing GABAA subtypes, [3H]RO7239181 competition (α1β2γ1). As to the method:
The affinity of compounds at GABAA γ1 subunit-containing receptors was measured by competition for [^3H]RO7239181 (67.3 Ci/mmol; Roche) binding to membranes from HEK293F cells (ThermoFisher R79007) expressing human (transiently transfected) receptors of composition α5β2γ1, α2β2γ1, α1β2γ1.
Harvested pellets from HEK293F cells expressing the different GABAA receptor subtypes were resuspended in Mannitol Buffer pH 7.2-7.4 (Mannitol 0.29 M, Triethylamine 10 mM, Acetic acid 10 mM, EDTA 1 mM plus protease inhibitors (20 tablets Complete, Roche Diagnostics Cat. No. 05 056 489 001 per liter)), washed two times and then resuspended at 1:10 to 1:15 dilution in the same buffer. Cell disruption was performed by stirring the suspension in a Parr vessel #4637 at 435 psi for 15 minutes, and then the suspensions were centrifuged at 1000×g for 15 minutes at 4° C. (Beckman Avanti J-HC; rotor JS-4.2). The supernatant (S1) was transferred in a 2 l Schott flask and the pellet (P1) was resuspended with Mannitol Buffer up to 175 ml. The resuspended pellet was transferred into a 250 ml Corning centrifugal beaker and centrifuged at 1500×g for 10 minutes at 4° C. (Beckman Avanti J-HC; rotor JS-4.2). The supernatant (S1) was then transferred in the 2 l Schott flask and the pellet was discarded. The supernatants (S1) were centrifuged in 500 ml Beckman polypropylene centrifugal beaker at 15′000×g for 30 minutes at 4° C. (Beckman Avanti J-20 XP; rotor JLA-10.500). The pellet (P2) was resuspended with Mannitol Buffer 1:1 and frozen at −80° C. The supernatant (S2) was centrifuged in 100 ml Beckman polypropylene centrifugal tubes at 48000×g for 50 minutes at 4° C. (Beckman Avanti J-20 XP; rotor JA-18). The supernatant (S3) was discarded and the pellet (P3) was resuspended with 1:1 Mannitol Buffer. The P2 and P3 protein concentration was determined with the BIORAD Standard assay method with bovine serum albumin as standard and measured on the NANO-Drop 1000. The membrane suspension was aliquots (500 μl per tube) and stored at −80° C. until required.
Membrane homogenates were resuspended and polytronised (Polytron PT1200E Kinematica AG) in Potassium Phosphate 10 mM, KCl 100 mM binding buffer at pH 7.4 to a final assay concentration determined with a previous experiment.
Assays were incubated to equilibrium for 1 hour at 4° C. and then, membranes were filtered onto unifilter (96-well white microplate with bonded GF/C filters preincubated 20-50 minutes in 0.3% Polyethylenimine) with a Filtermate 196 harvester (Packard BioScience) and washed 4 times with cold Potassium Phosphate 10 mM pH 7.4, KCl 100 mM binding buffer. After anhydrousing, filter-retained radioactivity was detected by liquid scintillation counting. Ki values were calculated using Excel-Fit (Microsoft) and are the means of two determinations.

Assay [4] has as its target human GABAA α1β3γ2 receptor (Homo sapiens (Human), UniProt P14867+P18507). Briefly: Radioligand binding assay for γ2-containing GABAA subtypes, [3H]Flumazenil competition (α1β3γ2). The settings on record: for γ2/γ1 Selectivity Ratio: Ki α1β3γ2 (nM)/Ki α2β2γ1 (nM); for LogSel: Log[Ki α1β3γ2 (nM)/Ki α2β2γ1 (nM)].
The target in assay [5] is α2β2γ1 GABAA receptor subtype (Homo sapiens (Human), UniProt P47869+Q8N1C3). Briefly: Two-electrode voltage clamp electrophysiology in Xenopus oocytes expressing GABAA receptors (modulation of GABA EC20 current). Format: cell-based. The settings on record: for Efficacy (GABA)%: % modulation of GABA EC20 = 100*(Fold increase-1), α2β2γ1 oocytes, compound at approx. 30-fold Ki; for Fold increase h-GABA-A α2β2γ1 oocyte @ 30-fold Ki: Xenopus oocytes expressing α2β2γ1, compound at approx. 30-fold its Ki α2β2γ1, GABA EC20 current. An outline of the steps:
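Two-electrode voltage clamp at −80 mV, room temperature, 3-5 days after mRNA injection into oocytes. GABA applied at EC20 for 1.5 min, twice, with compound during second application; at least 3 oocytes per concentration. Efficacy = extremum of point-by-point current ratio, expressed as 100×(fold increase−1).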
For orientation: In two-electrode clamp one electrode senses voltage and the other passes current.

[6] abbreviates: Ki h-GABAA α2β2γ1, [3H]RO7239181 competition binding, human GABAA α2β2γ1.
The mark [7] stands for this setting: Ki h-GABAA α2β2γ1, displacement of [3H]RO7239181, membranes of HEK293F cells expressing human receptors, means of two determinations.

Regarding `C[C@@H]1N=C(c2ncccc2F)c2c(ccc(C(F)(F)F)c2Cl)-n2nc(C(=O)N3CCC3)nc21` [Example 85, azetidin-1-yl-[(4S)-7-chloro-6-(3-fluoro-2-pyridyl)-4-methyl-8-(trifluoromethyl)-4H-[1,2,4]triazolo[1,5-a][1,4]benzodiazepin-2-yl]methanone], the Ki in assay [1] turned out to be 8.51 nM; in assay [2] (setting [6]), 60.9 nM; in assay [2] (setting [7]), 60.9 nM; in assay [3], 224 nM; in assay [4], 8.86 µM. In addition, the “γ2/γ1 Selectivity Ratio” value in assay [4] is 145.5. The molecule further displayed a LogSel in assay [4] of 2.16. Further, in assay [5], the “Efficacy (GABA)%” value is given as 140%. Moreover, the “Fold increase h-GABA-A α2β2γ1 oocyte @ 30-fold Ki” value in assay [5] is listed as 2.40.

Take `COC1CN(C(=O)c2nc3n(n2)-c2ccc(C(F)(F)F)c(Cl)c2C(c2ncccc2F)=N[C@H]3C)C1` [Example 103, [(4S)-7-chloro-6-(3-fluoro-2-pyridyl)-4-methyl-8-(trifluoromethyl)-4H-[1,2,4]triazolo[1,5-a][1,4]benzodiazepin-2-yl]-(3-methoxyazetidin-1-yl)methanone]: the Ki in assay [1] was 9.87 nM; in assay [2] (setting [6]), 25.4 nM; in assay [2] (setting [7]), 25.3 nM; in assay [3], 178 nM; in assay [4], over 30 µM. In assay [4], the “γ2/γ1 Selectivity Ratio” value is on record as 1183.4. In assay [4], this molecule had a LogSel of 3.07. In addition, the “Efficacy (GABA)%” value in assay [5] was found to be 113%. Moreover, the “Fold increase h-GABA-A α2β2γ1 oocyte @ 30-fold Ki” value in assay [5] worked out at 2.13.

For the molecule `C[C@@H]1N=C(c2c(F)cccc2F)c2c(ccc(C(F)(F)F)c2Cl)-n2nc(C(=O)NCCF)nc21` [Example 106, (4S)-7-chloro-6-(2,6-difluorophenyl)-N-(2-fluoroethyl)-4-methyl-8-(trifluoromethyl)-4H-[1,2,4]triazolo[1,5-a][1,4]benzodiazepine-2-carboxamide], the Ki amounted to 2.94 nM in assay [1]; 22.6 nM in assay [2] (setting [6]); 22.6 nM in assay [2] (setting [7]); 104 nM in assay [3]; 4.19 µM in assay [4]. The “γ2/γ1 Selectivity Ratio” value in assay [4] was found to be 185.1. The same molecule yielded a LogSel in assay [4] of 2.27. The “Efficacy (GABA)%” value in assay [5] was found to be 90%. For the same molecule, in assay [5], the “Fold increase h-GABA-A α2β2γ1 oocyte @ 30-fold Ki” value stood at 1.90.

For `C[C@@H]1N=C(c2c(F)cccc2F)c2c(ccc(C(F)(F)F)c2Cl)-n2nc(C(=O)NCCO)nc21` [Example 107, (4S)-7-chloro-6-(2,6-difluorophenyl)-N-(2-hydroxyethyl)-4-methyl-8-(trifluoromethyl)-4H-[1,2,4]triazolo[1,5-a][1,4]benzodiazepine-2-carboxamide], the Ki in assay [1] was 2.5 nM; in assay [2] (setting [6]), 14 nM; in assay [2] (setting [7]) it was 11.6 nM; in assay [3], 65.1 nM; in assay [4] it was 3.7 µM. Besides, the “γ2/γ1 Selectivity Ratio” value in assay [4] is recorded as 319.1. Also, the LogSel in assay [4] was 2.50. Besides, the “Efficacy (GABA)%” value in assay [5] came to 103%. In assay [5], the “Fold increase h-GABA-A α2β2γ1 oocyte @ 30-fold Ki” value was determined as 2.03.

`C[C@H](O)CNC(=O)c1nc2n(n1)-c1ccc(C(F)(F)F)c(Cl)c1C(c1c(F)cccc1F)=N[C@H]2C` [Example 109, (4S)-7-chloro-6-(2,6-difluorophenyl)-N-[(2S)-2-hydroxypropyl]-4-methyl-8-(trifluoromethyl)-4H-[1,2,4]triazolo[1,5-a][1,4]benzodiazepine-2-carboxamide]: the Ki came to 3.07 nM in assay [1]; 12.1 nM in assay [2] (setting [6]); 12.1 nM in assay [2] (setting [7]); 40.8 nM in assay [3]; 3.12 µM in assay [4]. The “γ2/γ1 Selectivity Ratio” value in assay [4] stood at 258.7. In addition, the LogSel in assay [4] is given as 2.41. Further, the “Efficacy (GABA)%” value in assay [5] was 126%. The “Fold increase h-GABA-A α2β2γ1 oocyte @ 30-fold Ki” value in assay [5] is on record as 2.26.

For `C[C@@H]1N=C(c2c(F)cccc2F)c2c(ccc(C(F)(F)F)c2Cl)-n2nc(C(=O)N3CCS(=O)(=O)CC3)nc21` [Example 114, [(4S)-7-chloro-6-(2,6-difluorophenyl)-4-methyl-8-(trifluoromethyl)-4H-[1,2,4]triazolo[1,5-a][1,4]benzodiazepin-2-yl]-(1,1-dioxo-1,4-thiazinan-4-yl)methanone], the Ki in assay [1] worked out at 3.73 nM; in assay [2] (setting [6]), 9.5 nM; in assay [2] (setting [7]), 9.5 nM; in assay [3], 23.2 nM; in assay [4], 3.09 µM. For the same molecule, the “γ2/γ1 Selectivity Ratio” value in assay [4] turned out to be 325.5. This molecule gave a LogSel in assay [4] of 2.51. For the same molecule, the “Efficacy (GABA)%” value in assay [5] is listed as 88%. Besides, in assay [5], the “Fold increase h-GABA-A α2β2γ1 oocyte @ 30-fold Ki” value was found to be 1.88.

For the molecule `C[C@@H]1N=C(c2c(F)cccc2F)c2c(ccc(C(F)(F)F)c2Cl)-n2nc(C(=O)NN(C)C)nc21` [Example 117, (4S)-7-chloro-6-(2,6-difluorophenyl)-N′,N′,4-trimethyl-8-(trifluromethyl)-4H-[1,2,4]triazolo[1,5-a][1,4]benzodiazepine-2-carbohydrazide], the Ki in assay [1] amounted to 3.14 nM; in assay [2] (setting [6]), 20 nM; in assay [2] (setting [7]), 20 nM; in assay [3], 99.2 nM; in assay [4], 5.51 µM. Moreover, the “γ2/γ1 Selectivity Ratio” value in assay [4] was 276.4. The molecule further came in with a LogSel in assay [4] of 2.44. The “Efficacy (GABA)%” value in assay [5] was found to be 92%. Further, the “Fold increase h-GABA-A α2β2γ1 oocyte @ 30-fold Ki” value in assay [5] was 1.92.

As for `C[C@@H]1N=C(c2c(F)cccc2F)c2c(ccc(C(F)(F)F)c2Cl)-n2nc(N3CCOC3=O)nc21` [Example 121, 3-[(4S)-7-chloro-6-(2,6-difluorophenyl)-4-methyl-8-(trifluoromethyl)-4H-[1,2,4]triazolo[1,5-a][1,4]benzodiazepin-2-yl]oxazolidin-2-one], the Ki in assay [1] is 1.43 nM; in assay [2] (setting [6]) it was 5.5 nM; in assay [2] (setting [7]), 5.5 nM; in assay [3], 39.1 nM; in assay [4], 1.21 µM. For the same molecule, the “γ2/γ1 Selectivity Ratio” value in assay [4] was found to be 218.2. Besides, the LogSel in assay [4] is 2.34. Moreover, in assay [5], the “Efficacy (GABA)%” value was 52%. Further, the “Fold increase h-GABA-A α2β2γ1 oocyte @ 30-fold Ki” value in assay [5] was 1.52.

Regarding `CNC(=O)Nc1nc2n(n1)-c1ccc(C(F)(F)F)c(Cl)c1C(c1c(F)cccc1F)=N[C@H]2C` [Example 129, 1-[(4S)-7-chloro-6-(2,6-difluorophenyl)-4-methyl-8-(trifluoromethyl)-4H-[1,2,4]triazolo[1,5-a][1,4]benzodiazepin-2-yl]-3-methyl-urea], the Ki is 1.58 nM in assay [1]; 6 nM in assay [2] (setting [6]); 6 nM in assay [2] (setting [7]); 49.9 nM in assay [3]; 3.35 µM in assay [4]. In addition, the “γ2/γ1 Selectivity Ratio” value in assay [4] turned out to be 558.0. The LogSel in assay [4] was determined as 2.75. The “Efficacy (GABA)%” value in assay [5] came out at 36%. Also, in assay [5], the “Fold increase h-GABA-A α2β2γ1 oocyte @ 30-fold Ki” value was 1.36.
